The record followed here is patent publication US5700478A, “Water-soluble pressure-sensitive mucoadhesive and devices provided therewith for emplacement in a mucosa-lined body cavity” (Cygnus, Inc., priority 1995, dated 1997).

Structures can show the parent of a compound that is named as a salt.

Data set [1] in a line: Release of benzocaine into distilled water: effect of polymer molecular weight. It is filed as physicochemical. The settings on record: HPC 80 k vs. 300 k in active-containing layer, FIG. 11. On the procedure:
In this Example, bilaminate mucoadhesive discs containing benzocaine were constructed generally as described in Example IX, substituting benzocaine for Dyclonine. Discs were made using HPC both at the same molecular weight as described in Example 2 (80 k), and at a higher molecular weight (300 k), and the release into distilled water was tested as described in Example X. The results are shown in FIG. 11.

The nature of data set [2]: Transport through pig mucosa (Franz diffusion cells). It is filed as in vitro ADME, porcine. On the procedure:
In this example, bilaminate mucoadhesive discs, containing as an active substance benzocaine or Dyclonine HCl, were affixed to porcine buccal mucosa and mounted on Franz diffusion cells as described in Example XIII. Avenge amounts of active substance was measured using HPLC, and percents were expressed as a percent of the total initially in the disc.
Particularly, the donor side of the cell was filled with pH 6 buffer and the receiver side was filled with phosphate buffered saline ("PBS"). Samples were taken from the receiver side every thirty minutes for three hours, and the samples were analyzed by HPLC. The average amount and the average percent of active substance appearing in the receiver side after three hours are shown in Table IV.

Data set [3] in a line: Transport through human stratum corneum (Franz diffusion cells). Format: in vitro ADME. On the procedure: In this example, bilaminate mucoadhesive discs, containing as an active substance benzocaine or Dyclonine HCl, were affixed to human stratum corneum and mounted on Franz diffusion cells. The donor side of the cell was filled with pH 6 buffer and the receiver side was filled with PBS. Samples were taken from the receiver side and analyzed using HPLC, and the average amount and percentage of active substance appearing in the receiver cell were determined.

For the compound `CCOC(=O)c1ccc(N)cc1` [Benzocaine, benzocaine], in data set [1], the “release rate of benzocaine vs. molecular weight of HPC” value was “decrease in release rate of benzocaine with increasing molecular weight of HPC”. The “Average % Transported” value in data set [2] (15% in bilaminate disc, % of drug initially in device, three hours, donor pH 6 buffer, receiver PBS) amounted to 3.29%; in data set [3] (15% in bilaminate disc, donor pH 6 buffer, receiver PBS), 2.42%. The “Average Amount Delivered” value in data set [2] (pH 6) stood at 284.63 μg/cm^2; in data set [3] (pH 6), 255.56 μg/cm^2.

`CCCCOc1ccc(C(=O)CCN2CCCCC2)cc1` [Dyclonine HCl]: in data set [2] (pH 6), the “Average % Transported” value is on record as 3.94% and the “Average Amount Delivered” value amounted to 282.77 μg/cm^2. In data set [3] (pH 6), the “Average % Transported” value is 0.18% and the “Average Amount Delivered” value is given as 14.60 μg/cm^2.
